Measured values taken from patent US11000502B2, “Antimicrobial compositions comprising copper-hydroxypyrone complexes” (United Kingdom Research and Innovation, priority 2017, dated 2021).

What was measured:
[1] = system: E. coli NCTC1110; experiment: In vitro antibacterial assay for liquid copper solutions (turbidimetric E. coli growth inhibition); assay type: cell-based
Protocol: Preparation of Copper Complexes with EDTA, Maltol and Ethyl Maltol for Antimicrobial Testing
Cu-EDTA complexes were freshly prepared by dissolving CuCl2.2H2O and disodium ethylenediaminetetraacetate (EDTA) di-hydrate in UHP water. The pH was adjusted to 7.5±0.2 with 1M NaOH. Various Cu:EDTA ratios were achieved by maintaining concentration copper at 20 mM (ca. 1270 ppm), whilst changing that of EDTA—20 and 200 mM—thus achieving Cu-EDTA ratios of 1:1 and 1:10, respectively.
CuMaltol (ratio 1:1) was prepared by mixing equivalent volumes of 100 mM CuCl2.2H2O solution with an alkaline (pH>11) 100 mM maltol solution and quickly diluting the mixture to 10 mM Cu (final pH of 5.7).
Cu Ethylmaltol (ratio 1:1) was prepared by mixing appropriate volumes of 80 mM CuCl2.2H2 O solution with an alkaline (pH>10.5) 20 mM ethylmaltol solution and quickly diluting the mixture to 10 mM Cu and 10 mM ethylmaltol (final pH of 7.2).
CuMaltol (ratio 1:4) was prepared by mixing appropriate volumes of 80 mM CuCl2.2H2O solution with an alkaline (pH>10.5) 60 mM maltol solution and quickly diluting the mixture to 10 mM Cu and 40 mM maltol (final pH of 8.5).
Cu Ethylmaltol (ratio 1:4) was prepared by mixing appropriate volumes of 80 mM CuCl2.2H2O solution with an alkaline (pH>10.5) 60 mM ethylmaltol solution and quickly diluting the mixture to 10 mM Cu and 40 mM ethylmaltol (final pH of 8.5).
Heavy Metal MOPS (HMM) Medium, pH 7.2±0.2.
HMM is a defined medium developed for testing heavy metals and here was supplemented with glucose and cas-amino acids (acid hydrolysate of casein) and optionally with 4% BSA. HMM was prepared from concentrated stock solutions of each reagent, and pH adjusted to 7.2±0.2 (Table 1). Freshly prepared medium was immediately filtered through a 0.22 micron membrane and stored at 4±2° C.
In Vitro Antibacterial Assay for Liquid Copper Solutions
Antimicrobial activity was assessed through determination of E. coli NCTC1110 growth inhibition in the presence of copper compounds. A turbidimetric assay was used to follow bacterial concentration over time as this is proportional to optical density (OD at 595 nm) in liquid medium. Bacterial cultures were grown overnight in HMM at 30° C. under constant shaking (80 rpm). On the day of the assay, the OD of the bacterial suspension was measured at 595 nm on a plate reader and diluted in HMM to achieve an OD of 0.05. […] Final copper concentrations in the assay ranged between 0.4 and 50 ppm, and OD was measured every hour for a typical period of 6 to 8 hours. OD background, i.e. OD absorbance not caused by bacteria, was determined to remove readout interference from copper and broth. Growth inhibition was calculated as follows: […]

[2] = Exemplification of redox protection (copper maltol degradation to cuprous hydroxide); assay type: physicochemical; conditions: pH 11.8 with sodium hydroxide; overnight (A) / several days (B, 30% (w/w) PEG)
Protocol: Exemplification of Redox Protection
A 40 mM copper stock was prepared by dissolving 0.347 g copper chloride dihydrate in 50 mL water. The resulting solution was blue.
A 160 mM maltol stock was prepared by dissolving 1.01 g maltol in 50 mL water and pH adjusting with NaOH (pH>10.5. This produced a clear solution.
Experiment A: Copper Maltol Degradation
The copper and maltol stocks were mixed in water at 1:1 ratios (v:v) producing a green solution. pH was then adjusted to 11.8 with sodium hydroxide to accelerate redox conversion.
Experiment B: Copper Maltol-PEG Assemblies Prevent Redox Conversion
Same as experiment A but 30% (w/w) PEG was added.

## Copper ethylmaltol
[1]; HMM with 4% BSA, 6 hours, ratios 1:1 and 1:4
  antimicrobial properties in protein-rich environments: retained

## copper maltol
[1]; bacterial media (HMM) comprising 4% BSA, 40 ppm copper, 6 hours
  suppression of E. coli growth: completely suppressed
[2]
  redox conversion of Cu2+ to cuprous hydroxide (red precipitate): a red precipitate (cuprous hydroxide) deposited

## O=C([O-])CN(CCN(CC(=O)[O-])CC(=O)O)CC(=O)O.[Cu+2] [copper EDTA, reference compound]
[1]; HMM pH 7.2, 6 hours, Cu:EDTA 1:1 and 1:10
  antibacterial action against E. coli (FIG. 1): significantly suppressing its antibacterial action

## [Cl][Cu][Cl] [copper chloride, reference compound]
[1]; bacterial media (HMM) comprising 4% BSA, 50 ppm copper, 6 hours
  E. coli growth inhibition: 60%
